These results are taken from patent US20210403567A1, “METHODS OF TREATING CERVICAL CANCER BY ADMINISTERING A PD-1 INHIBITOR” (priority 2020, published 2021).

The test system of assay [1] is cervical cancer. Particulars: 5/19; squamous histology only; cited from earlier work.
For assay [2], the system named is cervical cancer. The following applies: patient population of 60% squamous histology; cited from earlier work.
Assay [3] has as its system cervical cancer. The following applies: 12/98; cited from earlier work.
Assay [4] deals with recurrent or metastatic cervical cancer that has progressed after first-line platinum-based treatment.
Where [5] appears, read: subgroup with IC chemotherapy selected prior to randomisation: Gemcitabine (n = 108 vs 121).
[6] abbreviates: subgroup with IC chemotherapy selected prior to randomisation: Irinotecan (n = 26 vs 19).

Where two headings read alike, the source gives them in different places.

With nivolumab, the objective response rate with cervical cancer [1] was 26.3%. Also, the response rate in the assay on cervical cancer [2] is on record as 4%.
As for pembrolizumab, the “ORR in the cervical cancer cohort” value in the assay with cervical cancer [3] was 12.2%.
Consider `Nc1ccn([C@@H]2O[C@H](CO)[C@@H](O)C2(F)F)c(=O)n1` [gemcitabine, reference compound], for which, in assay [4] (setting [5]), the “Median OS (95% CI)” value was 9.0 (7.0-10.6) months, the “Median PFS (95% CI)” value is reported as 2.8 (2.1-3.9) months and the ORR was 5.0%.
With `CCc1c2c(nc3ccc(OC(=O)N4CCC(N5CCCCC5)CC4)cc13)-c1cc3c(c(=O)n1C2)COC(=O)[C@]3(O)CC` [irinotecan, reference compound], in assay [4] (setting [6]), the “Median OS (95% CI)” value is listed as 11.8 (6.9-14.9) months, the “Median PFS (95% CI)” value is reported as 4.2 (1.6-8.3) months and the ORR was found to be 15.8%.
